Results published in ChEMBL document CHEMBL5338775, “Discovery of a Novel Class of PROTACs as Potent and Selective Estrogen Receptor α Degraders to Overcome Endocrine-Resistant Breast Cancer In Vitro and In Vivo” (J Med Chem, 2023).
Calls of active or inactive are those of the source. No cut-off for these calls is given here. Residues, ends and D or L forms follow the SMILES beside them. *: point of attachment. Cbz = O=C(OCc1ccccc1)*

Assays:
[1] = target: T1, Estrogen receptor (Homo sapiens) (UniProt P03372); assay: Induction of ERalpha degradation in ER-positive human MCF7 cells at 5 uM incubated for 12 hrs by Western blot analysis; assay type: cell-based
T1 sequence (whole entry): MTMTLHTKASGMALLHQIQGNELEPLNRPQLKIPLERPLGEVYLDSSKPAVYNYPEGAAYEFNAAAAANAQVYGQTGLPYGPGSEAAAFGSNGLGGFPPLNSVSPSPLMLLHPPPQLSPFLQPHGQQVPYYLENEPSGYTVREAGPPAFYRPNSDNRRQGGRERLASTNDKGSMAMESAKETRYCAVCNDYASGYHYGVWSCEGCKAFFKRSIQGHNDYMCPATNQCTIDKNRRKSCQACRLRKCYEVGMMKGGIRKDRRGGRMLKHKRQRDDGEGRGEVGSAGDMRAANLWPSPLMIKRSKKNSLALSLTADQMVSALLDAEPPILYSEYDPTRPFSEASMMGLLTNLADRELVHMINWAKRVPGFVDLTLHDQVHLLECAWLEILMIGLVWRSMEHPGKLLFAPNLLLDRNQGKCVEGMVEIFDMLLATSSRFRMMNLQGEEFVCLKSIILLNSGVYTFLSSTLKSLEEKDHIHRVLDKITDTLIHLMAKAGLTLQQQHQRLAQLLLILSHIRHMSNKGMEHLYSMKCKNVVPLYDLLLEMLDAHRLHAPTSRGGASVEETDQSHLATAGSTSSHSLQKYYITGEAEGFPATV

[2] = target: T1, Estrogen receptor (Homo sapiens); assay: Induction of ERalpha degradation in ER-positive human MCF7 cells at 1 uM incubated for 12 hrs by Western blot analysis; assay type: cell-based
[3] = target: T1, Estrogen receptor (Homo sapiens); assay: Induction of ERalpha degradation in ER-positive human MCF7 cells at 1 uM incubated for 12 hrs in presence of N-ethyl-5,6-bis(4-hydroxyphenyl)-N-(4-methoxyphenyl)-7-oxabicyclo[2.2.1]hept-5-ene-2-sulfonamide by Western blot analysis; assay type: cell-based
MCF7 [4] = assay: Antitumor activity against human tamoxifen-sensitive MCF7 cells xenografted in BALB/c nude mouse assessed as inhibition of tumor growth at 5 micromol/kg, ip administered once every 2 days and measured every 2 days; assay type: functional, organism-based; details: dose 5.0 µmol/kg
Mus musculus [5] = assay: In vivo protac activity at VHL/ERalpha in BALB/c nude mouse xenografted with human tamoxifen-sensitive MCF7 cells assessed as reduction in ERalpha protein levels in tumor at 5 micromol/kg, ip administered once every 2 days by Western blot analysis; assay type: functional, organism-based; details: dose 5.0 µmol/kg
MCF7 [6] = assay: Antitumor activity against human tamoxifen-sensitive MCF7 cells xenografted in BALB/c nude mouse assessed as increase in tumor necrosis area at 5 micromol/kg, ip administered once every 2 days by […] staining based analysis; assay type: functional, organism-based; details: dose 5.0 µmol/kg
MCF7 [7] = assay: Antitumor activity against human tamoxifen-sensitive MCF7 cells xenografted in BALB/c nude mouse assessed as reduction in cell proliferation at 5 micromol/kg, ip administered once every 2 days by ki67 staining based analysis; assay type: functional, organism-based; details: dose 5.0 µmol/kg
T47D [8] = assay: Inhibition of nascent GREB1 RNA synthesis in human T47D cells incubated for 6 hrs by 4-thiouridine incorporation assay; assay type: functional, cell-based
T47D [9] = assay: Inhibition of nascent IGFBP4 RNA synthesis in human T47D cells incubated for 6 hrs by 4-thiouridine incorporation assay; assay type: functional, cell-based
[10] = target: T1, Estrogen receptor (Homo sapiens); assay: Inhibition of ERalpha binding to DNA in human T47D cells assessed as reduction in protein occupancy incubated for 6 hrs by ChIP-seq analysis; assay type: cell-based
T47D [11] = assay: Inhibition of gene transcription in human T47D cells assessed as reduction in Pol II occupancy at GREB1 promoter region by ChIP-seq analysis; assay type: functional, cell-based
T47D [12] = assay: Inhibition of gene transcription in human T47D cells assessed as reduction in Pol II occupancy at IGFBP4 promoter region by ChIP-seq analysis; assay type: functional, cell-based
T47D [13] = assay: Inhibition of gene transcription in human T47D cells assessed as reduction in H3K27ac levels in GREB1 promoter region by ChIP-seq analysis; assay type: functional, cell-based
T47D [14] = assay: Inhibition of gene transcription in human T47D cells assessed as reduction in H3K27ac levels in IGFBP4 promoter region by ChIP-seq analysis; assay type: functional, cell-based
MCF7 [15] = assay: cells; details: Homo sapiens, MCF7, 72 h
cells = details: Homo sapiens, Tamoxifen-resistant LCC2 cell, 72 h
T47D [16] = assay: cells; details: Homo sapiens, 72 h
T47D [17] = assay: cells; details: Homo sapiens, 72 h; remark: listed apart in the source
T47D [18] = assay: cells; details: Homo sapiens, 72 h; remark: listed apart in the source
MDA-MB-231 = assay: cells; details: Homo sapiens, MDA-MB-231, 72 h
Estrogen receptor beta [19] = target: T2, Estrogen receptor beta (Homo sapiens, UniProt Q92731); assay: Binding affinity to ERbeta (unknown origin) assessed as relative binding affinity incubated for 2 hrs by fluorescence polarization assay relative to estradiol
T2 sequence (Q92731 whole entry): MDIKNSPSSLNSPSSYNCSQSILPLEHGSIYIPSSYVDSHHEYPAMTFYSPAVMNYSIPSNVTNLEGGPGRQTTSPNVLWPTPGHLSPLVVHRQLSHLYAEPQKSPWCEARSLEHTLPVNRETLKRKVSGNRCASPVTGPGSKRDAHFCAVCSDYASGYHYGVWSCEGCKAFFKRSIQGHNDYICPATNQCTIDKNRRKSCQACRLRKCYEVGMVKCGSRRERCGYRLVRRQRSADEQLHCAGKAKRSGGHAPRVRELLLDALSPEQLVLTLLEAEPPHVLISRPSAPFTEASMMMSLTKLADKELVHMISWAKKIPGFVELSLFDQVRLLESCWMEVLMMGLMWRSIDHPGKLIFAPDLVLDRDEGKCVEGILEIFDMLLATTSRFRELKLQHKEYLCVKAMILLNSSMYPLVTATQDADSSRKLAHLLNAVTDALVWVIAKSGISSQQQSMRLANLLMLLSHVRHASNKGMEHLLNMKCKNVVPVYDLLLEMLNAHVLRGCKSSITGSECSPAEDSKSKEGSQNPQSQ

[20] = Selectivity ratio of relative binding affinity for ERalpha (unknown origin) to relative binding affinity to ERbeta (unknown origin)
[21] = Selectivity index, ratio of Ki for ERalpha (unknown origin) to Ki for ERbeta (unknown origin)
[22] = target: T1, Estrogen receptor (Homo sapiens); assay: Induction of ERalpha degradation in ER-positive human MCF7 cells at 1 uM incubated for 12 hrs in presence of (2S,4R)-1-[(2S)-2-amino-3,3-dimethylbutanoyl]-4-hydroxy-N-[(1S)-1-[4-(4-methyl-1,3-thiazol-5-yl)phenyl]ethyl]pyrrolidine-2-carboxamide by Western blot analysis; assay type: cell-based
[23] = target: T1, Estrogen receptor (Homo sapiens); assay: Induction of ERalpha degradation in ER-positive human MCF7 cells at 1 to 10 uM incubated for 12 hrs by Western blot analysis; assay type: cell-based; details: dose 1-10 µM
Estrogen receptor beta [24] = target: T2, Estrogen receptor beta; assay: Induction of ERbeta degradation in human NCI-H1975 cells at 1 to 10 uM incubated for 12 hrs by Western blot analysis; assay type: cell-based; details: dose 1-10 µM
Estrogen receptor = target: T3, Estrogen receptor (Homo sapiens, UniProt P03372)
T3 sequence (P03372 whole entry): T1 sequence (whole entry)

Estrogen receptor beta [25] = target: T2, Estrogen receptor beta
[26] = target: T1, Estrogen receptor (Homo sapiens); assay: Induction of ERalpha degradation in ER-positive human MCF7 cells at 10 uM incubated for 12 hrs by Western blot analysis; assay type: cell-based
Estrogen receptor beta [27] = target: T2, Estrogen receptor beta; assay: Induction of ERbeta degradation in human NCI-H1975 cells at 10 uM incubated for 12 hrs by Western blot analysis; assay type: cell-based
[28] = target: T4, von Hippel-Lindau disease tumor suppressor/Estrogen receptor (Homo sapiens) (UniProt P03372+P40337); assay: PROTAC activity at VHL/wild type ERalpha in ER-positive human MCF7 cells assessed as induction of ERalpha degradation at 1 uM incubated for 12 hrs by Western blot analysis; assay type: cell-based
T4 sequence (P40337 whole entry, looked up, one chain of several): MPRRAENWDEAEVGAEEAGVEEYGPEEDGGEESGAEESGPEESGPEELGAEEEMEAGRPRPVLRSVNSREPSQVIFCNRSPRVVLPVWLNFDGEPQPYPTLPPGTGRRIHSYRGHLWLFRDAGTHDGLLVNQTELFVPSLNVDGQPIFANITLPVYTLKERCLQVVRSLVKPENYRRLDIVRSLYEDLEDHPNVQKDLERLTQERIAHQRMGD

[29] = target: T4, von Hippel-Lindau disease tumor suppressor/Estrogen receptor (Homo sapiens); assay: PROTAC activity at VHL/wild type ERalpha in ER-positive human T47D cells assessed as induction of ERalpha degradation at 2 uM incubated for 12 hrs by Western blot analysis; assay type: cell-based
[30] = target: T4, von Hippel-Lindau disease tumor suppressor/Estrogen receptor (Homo sapiens); assay: PROTAC activity at VHL/ERalpha in ER-positive human tamoxifen-resistant LCC2 cells assessed as induction of ERalpha degradation at 2 uM incubated for 12 hrs by Western blot analysis; assay type: cell-based; details: tamoxifen-resistant LCC2 cell
[31] = target: T4, von Hippel-Lindau disease tumor suppressor/Estrogen receptor (Homo sapiens); assay: PROTAC activity at VHL/ERalpha in ER-positive human MCF7 cells assessed as induction of ERalpha degradation at 0.01 to 10 uM incubated for 12 hrs by Western blot analysis; assay type: cell-based; details: dose 0.01-10 µM
[32] = target: von Hippel-Lindau disease tumor suppressor/Estrogen receptor beta (Homo sapiens) (UniProt Q92731+P40337); assay: PROTAC activity at VHL/ERbeta in human NCI-H1975 cells assessed as induction of ERbeta degradation at 1 to 10 uM incubated for 12 hrs by Western blot analysis; assay type: cell-based; details: dose 1-10 µM
von Hippel-Lindau disease tumor suppressor/Estrogen receptor beta (Homo sapiens), sequence (P40337 whole entry, looked up): as the sequence (P40337 whole entry, looked up, one chain of several) above
von Hippel-Lindau disease tumor suppressor/Estrogen receptor beta (Homo sapiens), sequence (Q92731 whole entry, looked up): as the sequence (Q92731 whole entry) above

MCF7 [33] = assay: Induction of apoptosis in human MCF7 cells at 1 to 10 uM incubated for 24 hrs by Annexin V-FITC/PI staining based analysis; assay type: functional, cell-based; details: dose 1-10 µM
MCF7 [34] = assay: Induction of cell cycle arrest in human MCF7 cells at 1 to 10 uM incubated for 24 hrs; assay type: functional, cell-based; details: dose 1-10 µM
[35] = test system: tamoxifen-resistant LCC2 cell; assay: Antitumor activity against human ER-positive tamoxifen-resistant LCC2 cells xenografted in BALB/c nude mouse assessed as reduction in tumor growth at 5 micromol/kg, ip administered once every 2 days and measured every 2 days; assay type: functional, organism-based; details: dose 5.0 µmol/kg
Mus musculus [36] = assay: In vivo protac activity at VHL/ERalpha in BALB/c nude mouse xenografted with human ER-positive tamoxifen-resistant LCC2 cells assessed as reduction in ERalpha protein levels in tumor at 5 micromol/kg, ip administered once every 2 days by Western blot analysis; assay type: functional, organism-based; details: dose 5.0 µmol/kg
in vitro = details: human, MCF-10A cells

Structure (SMILES)	Activity [2]	inhibition (T47D [8])	inhibition (T47D [9])	inhibition [10]	inhibition (T47D [11])	inhibition (T47D [12])	inhibition (T47D [13])	inhibition (T47D [14])	IC50 (MCF7 [15]) [nM]	IC50 (cells) [nM]	IC50 (T47D [16]) [nM]	IC50 (T47D [17]) [nM]	IC50 (T47D [18]) [nM]	IC50 (MDA-MB-231) [nM]	RBA (Estrogen receptor beta [19]) [%]	Selectivity ratio [20]	Ratio Ki [21]	Ki (Estrogen receptor) [nM]	Ki (Estrogen receptor beta [25]) [nM]	further results
CC(C)C[C@@H](C=O)NC(=O)[C@H](CC(C)C)NC(=O)[C@H](CC(C)C)NC(=O)OCc1ccccc1 (Cbz-Leu-Leu-Leu-aldehyde)																				Activity [1]: inactive
Cc1ncsc1-c1ccc([C@H](C)NC(=O)[C@@H]2C[C@@H](O)CN2C(=O)[C@@H](N)C(C)(C)C)cc1	inactive																			Activity [3]: inactive
C[C@]12CC[C@@H]3c4ccc(O)cc4C[C@@H](CCCCCCCCC[S+]([O-])CCCC(F)(F)C(F)(F)F)[C@H]3[C@@H]1CC[C@@H]2O (some centres undefined) [FULVESTRANT]		Active	Active	Active	Active	Active	Active	Active	330	11800	1760	3920	2210	> 100000						inhibition (MCF7 [4]): Active; Activity (Mus musculus [5]): Active; Activity (MCF7 [6]): Active; Activity (MCF7 [7]): Active
CCN(c1ccc(OC)cc1)S(=O)(=O)C1CC2OC1C(c1ccc(O)cc1)=C2c1ccc(O)cc1 (centres undefined)	inactive														0.31	3.39	13.1	190	2540	Activity [22]: inactive; Activity [23]: inactive; Activity (Estrogen receptor beta [24]): inactive
COc1ccc(N(CC(F)(F)F)S(=O)(=O)C2CC3OC2C(c2ccc(O)cc2)=C3c2ccc(O)cc2)cc1 (centres undefined)																				Activity [26]: Active; Activity (Estrogen receptor beta [27]): Active
Cc1ncsc1-c1ccc([C@H](C)NC(=O)[C@@H]2C[C@@H](O)CN2C(=O)[C@@H](NC(=O)CCCCCOc2ccc(N(CC(F)(F)F)S(=O)(=O)C3CC4OC3C(c3ccc(O)cc3)=C4c3ccc(O)cc3)cc2)C(C)(C)C)cc1 (some centres undefined)		Active	Active	Active	Active	Active	Active	Active	50	4170	1350	1260	1510	> 100000	0.03	1.33	5.16	5080	26200	Activity [28]: Active; Activity [29]: Active; Activity [30]: Active; Activity [31]: Active; Activity [32]: inactive; Activity (MCF7 [33]): Active; Activity (MCF7 [34]): Active; Activity [35]: Active; Activity (Mus musculus [36]): Active; IC50 at 72 h (in vitro): 7690 nM
